Reference: publication PMC6458850, “CXXC5 mediates growth plate senescence and is a target for enhancement of longitudinal bone growth” (Life Science Alliance, 2019)

System: growth plates of proximal tibiae
Experiment: Growth plate senescence and longitudinal bone growth in KY19382-treated mice
Type: in vivo, mouse
Description: Figure 5. The effects of KY19382 on growth plate senescence and longitudinal bone growth. (A-I) KY19382 (0.1 mg/kg) was administered to 7-wk-old mice (A-E) or 3-wk-old mice (F-I) by daily intraperitoneal injection for 2 wk (n = 7). H&E staining, IHC analyses with the indicated antibodies, and TRAP staining in the growth plates of proximal tibiae treated with KY19382 (A, F). Quantitative analyses of the cell number per column (mean ± SEM, n = 7; t test, ***P < 0.0005) (B) or the height (mean ± SEM, n = 7; t test, ***P < 0.0005) (G) of resting zone and proliferative zone (RZ&PZ) and hypertrophic zone (HZ) in the growth plates of proximal tibiae. Quantitative analyses of BrdU-positive cells in the growth plates (mean ± SEM, n = 5; t test, ***P < 0.0005) (C, H). Quantitative analyses of the number of TRAP-positive foci along 250 μm of the cartilage/bone interface (mean ± SEM, n = 3; t test, *P < 0.05) (D, I). Immunoblot analyses with the indicated antibodies in the growth plate of proximal tibiae of mice treated with KY19382 (E). Scale bars, 50 μm. (J) 3-wk-old mice were intraperitoneally injected with KY19382 (0.1 mg/kg) daily for 10 wk. Representative radiographs are shown (left), and tibial length was measured (right) (mean ± SEM, n = 7-15; t test, ***P < 0.0005). The area within the dashed lines indicates the growth plate zone. n.s., no significance; TRAP, tartrate-resistant acid phosphatase. Cxxc5^-/- mice were established in a previous study ([Kim et al, 2015]). To manipulate growth plate senescence by estrogen, 3-wk-old Cxxc5^+/+ and Cxxc5^-/- male mice received weekly i.m. injections of either 70 μg/kg estradiol (E2) cypionate (Sigma-Aldrich) or vehicle (cottonseed oil) for 3 wk. To investigate the effects of KY19382 treatment on longitudinal bone growth, C57BL/6 male mice were purchased from KOATECH (Gyeonggido, Korea). KY19382 (0.1 mg/kg) was administered daily by i.p. injection to 3- and 7-wk-old mice for 2 wk or to 3-wk-old mice for 10 wk. For BrdU labeling experiments, the mice were i.p. injected with 50 mg/kg BrdU (Sigma-Aldrich) before 24 h to euthanize. All animal procedures were approved by the Institutional Animal Care and Use Committee of Yonsei University (Korea) and conducted based on the guidelines of the Korean Food and Drug Administration. Plain radiographs were taken using an X-ray apparatus (KODAK DXS 4000 Pro SYSTEM; Carestream Health). The tissues were fixed in 4% PFA, decalcified in 10% EDTA (pH 7.4), dehydrated, embedded in paraffin, and sectioned to 4-μm thickness (Leica Microsystems). The tissues sections were rehydrated and used for further analyses, including H&E, TRAP, and IHC staining. To perform IHC staining, the sections were incubated with citrate buffer (pH 6.0) at 80°C for 30 min, with 0.05% trypsin working solution (pH 7.8) for 30 min at 37°C, or with 0.5% pepsin (Sigma-Aldrich) for 15 min at 37°C. Then, the sections were blocked with 5% normal goat serum (Vector Laboratories) and 0.3% Triton X-100 in PBS for 1 h at room temperature. For 3,3'-diaminobensidine (DAB) staining, the sections were incubated with 0.345% H2O2 for 15 min. Before incubating the sections with mouse primary antibody, mouse IgG was blocked using a M.O.M kit (Vector Laboratories). The sections were incubated at 4°C overnight with the following primary antibodies: anti-β-catenin (#610154; 1:50; BD Bioscience), anti-CXXC5 (1:200; lab-made) anti-BrdU ([…]; 1:200; DAKO), anti-COL2A1 (PA5-11462; 1:100; Thermo Fisher Scientific), anti-Ki67 (ab15580; 1:200; Abcam), and anti-RUNX2 (ab23981; 1:200; Abcam). Then, the sections were incubated at room temperature for 1 h with biotinylated anti-mouse (BA-9200; 1:200; Vector Laboratories) or biotinylated anti-rabbit (BA-1000; 1:200; Vector Laboratories) secondary antibodies. The sections were then incubated in avidin-biotin complex solutions (Vector Laboratories), stained with a DAB kit (Vector Laboratories) for 3-30 min, and counterstained with methyl green (Sigma-Aldrich). […]

[1] = 3-wk-old mice, 0.1 mg/kg i.p. daily for 2 wk
[2] = 7-wk-old mice, 0.1 mg/kg i.p. daily for 2 wk

In the case of `CON=C1C(=C2C(=O)Nc3cc(Cl)c(Cl)cc32)Nc2ccccc21` [KY19382, 5,6-dichloroindirubin-3′-methoxime], the “BrdU-positive cells in growth plate” value [1] is reported as “elevated”, the “height of each growth plate zone” value [1] is reported as “elevated” and the “number of TRAP-positive foci in the growth plate/trabecular interface” value (3-wk-old mice, 0.1 mg/kg i.p. daily for 2 wk, vs vehicle) is reported as “not different”. For the same compound, the length of tibiae (3-wk-old mice, 0.1 mg/kg i.p. daily for 10 wk, vs vehicle) was “significantly increased”, the “nuclear β-catenin in growth plate chondrocytes” value [2] was “dramatically increased” and the “numbers of proliferative and hypertrophic chondrocytes per column” value [2] was “increased numbers”. The “total growth plate height (COL2A1 immunostaining)” value [2] was “significantly increased” and the “TRAP-positive foci at cartilage/bone interface” value (7-wk-old mice, 0.1 mg/kg i.p. daily for 2 wk, vs vehicle) was “elevated”.
